Key:
Mus musculus = assay: Antagonistic activity against scopolamine-induced behavioral deficits in mice by subcutaneous administration at a concentration of 5.0 mg/kg; format: functional
[1] = biological target: T1, Adrenergic receptor alpha-1 (Rattus norvegicus, UniProt P15823+P23944+P43140); assay: Compound was tested for inhibition of [3H]WB-4101 against Alpha-1 adrenergic receptor from rat whole brain membranes using in vitro adrenergic receptor binding assay.; format: cell membranes, Membrane
T1 sequence (P15823 whole entry): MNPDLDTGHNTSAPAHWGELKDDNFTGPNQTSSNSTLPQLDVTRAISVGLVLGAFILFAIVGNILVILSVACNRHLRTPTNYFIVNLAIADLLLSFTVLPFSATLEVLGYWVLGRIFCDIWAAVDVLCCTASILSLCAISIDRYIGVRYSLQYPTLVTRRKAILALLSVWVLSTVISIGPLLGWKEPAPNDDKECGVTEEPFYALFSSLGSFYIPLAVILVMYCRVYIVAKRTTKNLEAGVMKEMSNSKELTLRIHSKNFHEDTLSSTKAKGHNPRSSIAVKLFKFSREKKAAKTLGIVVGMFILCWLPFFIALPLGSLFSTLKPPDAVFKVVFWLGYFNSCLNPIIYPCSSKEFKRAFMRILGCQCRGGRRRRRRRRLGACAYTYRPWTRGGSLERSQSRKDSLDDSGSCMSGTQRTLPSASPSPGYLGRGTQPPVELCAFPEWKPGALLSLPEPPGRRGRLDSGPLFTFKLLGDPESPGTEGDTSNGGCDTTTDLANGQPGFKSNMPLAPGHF
T1 sequence (P23944 whole entry): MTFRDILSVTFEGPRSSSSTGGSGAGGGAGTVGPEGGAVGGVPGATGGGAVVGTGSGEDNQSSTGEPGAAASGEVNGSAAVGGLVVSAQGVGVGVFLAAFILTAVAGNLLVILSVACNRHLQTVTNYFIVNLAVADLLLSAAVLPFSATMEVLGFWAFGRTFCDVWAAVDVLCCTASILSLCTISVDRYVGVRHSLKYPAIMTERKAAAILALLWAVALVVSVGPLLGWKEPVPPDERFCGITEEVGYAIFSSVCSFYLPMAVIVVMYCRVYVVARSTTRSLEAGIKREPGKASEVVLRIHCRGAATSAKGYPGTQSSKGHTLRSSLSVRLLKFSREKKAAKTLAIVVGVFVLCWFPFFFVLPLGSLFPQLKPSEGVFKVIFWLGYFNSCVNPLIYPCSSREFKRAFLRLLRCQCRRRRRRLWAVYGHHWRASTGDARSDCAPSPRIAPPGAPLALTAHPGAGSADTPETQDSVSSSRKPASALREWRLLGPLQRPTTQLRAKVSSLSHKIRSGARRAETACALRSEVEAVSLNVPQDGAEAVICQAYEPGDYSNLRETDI
T1 sequence (P43140 whole entry): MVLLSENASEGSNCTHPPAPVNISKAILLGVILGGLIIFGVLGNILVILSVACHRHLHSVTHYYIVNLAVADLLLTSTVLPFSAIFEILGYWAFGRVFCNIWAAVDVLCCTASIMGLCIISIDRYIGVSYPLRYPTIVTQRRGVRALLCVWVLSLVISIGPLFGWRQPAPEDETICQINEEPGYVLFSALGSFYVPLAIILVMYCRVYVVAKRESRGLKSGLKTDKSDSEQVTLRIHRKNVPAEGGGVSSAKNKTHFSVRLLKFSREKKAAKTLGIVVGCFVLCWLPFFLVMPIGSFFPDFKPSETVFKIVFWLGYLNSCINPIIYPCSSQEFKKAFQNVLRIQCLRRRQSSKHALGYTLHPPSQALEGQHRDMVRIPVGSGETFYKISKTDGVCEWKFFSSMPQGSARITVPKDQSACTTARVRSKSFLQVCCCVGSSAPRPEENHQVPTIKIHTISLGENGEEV

[2] = biological target: T2, Adrenergic receptor alpha-2 (Rattus norvegicus, UniProt P22086+P19328+P22909); assay: Compound was tested for inhibition of [3H]clonidine against Alpha-2 adrenergic receptor from rat cortical membranes using in vitro adrenergic receptor binding assay.; format: cell membranes, Membrane
T2 sequence (P22086 whole entry): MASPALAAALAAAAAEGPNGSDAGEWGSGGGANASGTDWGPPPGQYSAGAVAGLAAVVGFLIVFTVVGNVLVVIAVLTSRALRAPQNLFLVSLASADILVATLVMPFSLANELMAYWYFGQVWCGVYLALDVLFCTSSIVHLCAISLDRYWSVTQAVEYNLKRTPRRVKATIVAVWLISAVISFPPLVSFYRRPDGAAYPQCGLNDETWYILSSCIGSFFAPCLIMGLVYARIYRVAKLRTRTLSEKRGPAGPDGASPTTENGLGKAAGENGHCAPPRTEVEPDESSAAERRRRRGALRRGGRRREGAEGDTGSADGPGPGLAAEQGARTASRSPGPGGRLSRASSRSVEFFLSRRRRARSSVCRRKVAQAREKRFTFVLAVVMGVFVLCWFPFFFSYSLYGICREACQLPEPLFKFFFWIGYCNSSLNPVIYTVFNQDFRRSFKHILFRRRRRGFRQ
T2 sequence (P19328 whole entry): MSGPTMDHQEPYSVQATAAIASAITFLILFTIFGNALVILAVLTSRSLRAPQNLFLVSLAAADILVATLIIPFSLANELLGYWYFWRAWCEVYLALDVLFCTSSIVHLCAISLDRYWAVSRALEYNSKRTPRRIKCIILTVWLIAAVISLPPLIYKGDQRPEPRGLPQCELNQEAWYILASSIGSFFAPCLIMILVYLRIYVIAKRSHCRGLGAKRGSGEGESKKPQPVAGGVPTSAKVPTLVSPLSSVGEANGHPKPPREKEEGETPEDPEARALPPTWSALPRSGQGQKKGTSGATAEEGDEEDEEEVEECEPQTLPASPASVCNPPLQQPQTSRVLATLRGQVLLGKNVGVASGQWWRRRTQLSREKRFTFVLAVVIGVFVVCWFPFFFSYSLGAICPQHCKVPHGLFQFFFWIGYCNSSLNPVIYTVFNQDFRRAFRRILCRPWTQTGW
T2 sequence (P22909 whole entry): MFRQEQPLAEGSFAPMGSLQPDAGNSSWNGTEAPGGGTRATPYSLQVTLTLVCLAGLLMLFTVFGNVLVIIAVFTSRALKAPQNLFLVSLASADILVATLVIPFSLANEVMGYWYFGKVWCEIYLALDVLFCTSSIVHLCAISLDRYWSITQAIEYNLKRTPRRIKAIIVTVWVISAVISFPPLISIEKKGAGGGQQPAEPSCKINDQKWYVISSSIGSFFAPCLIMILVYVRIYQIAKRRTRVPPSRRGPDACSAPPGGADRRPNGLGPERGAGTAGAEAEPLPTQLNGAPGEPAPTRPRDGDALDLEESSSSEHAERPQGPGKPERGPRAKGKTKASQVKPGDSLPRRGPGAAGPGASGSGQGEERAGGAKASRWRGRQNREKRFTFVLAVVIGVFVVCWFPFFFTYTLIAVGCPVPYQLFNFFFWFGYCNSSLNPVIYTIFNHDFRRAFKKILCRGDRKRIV

Rattus norvegicus = species: Rattus norvegicus; assay: Compound was tested for inhibition of [3H]5-HT against rat whole brain using in vitro biogenic amine uptake assay using rat brain synaptosomes.; format: functional
[3] = biological target: Muscarinic acetylcholine receptor; assay: Inhibition of radioligand [3H]QNB binding (competitive inhibition) to muscarinic acetylcholine receptor in the rat forebrain in the absence of zinc

Work on `C=Cc1cccn1N(C)c1ccncc1` yielded a Response (Mus musculus) of 20%, an IC50 [1] of 5.9 µM and an IC50 [2] of 0.21 µM. For the same molecule, the IC50 (Rattus norvegicus) was greater than 20 µM and the IC50 [3] was 8.8 µM.

From ChEMBL document CHEMBL1129671, “Substituted (pyrroloamino)pyridines: potential agents for the treatment of Alzheimer's disease” (J Med Chem, 1996)
